≈ marks a conversion by molar mass, not a printed value.
Key:
[1] = AUC in athymic CD-1 nude mouse at 10 mg/kg, po by LC-MS/MS analysis; type: ADME, organism-based; conditions: in vivo
[2] = Solubility of the compound at pH 2; type: physicochemical; conditions: buffer
[3] = test system: MDA-MB-468; test: Growth inhibition of human MDA-MB-468 cells measured after 5 days by sulforhodamine B assay; type: functional; conditions: MDA-MB-468, 120 h
[4] = Dissociation constant, pKa of the compound; type: physicochemical
[5] = test system: HCT-116; test: Antitumor activity against human HCT116 cells xenografted in athymic nude mouse assessed as tumor growth inhibition at 5.5 mg/kg, po qd measured on day 21; type: functional; conditions: HCT-116, po, 504 h, read-out: TGI
[6] = Bioavailability in beagle dog at 5 mg/kg by LC-MS/MS analysis; type: ADME, organism-based, Canis lupus familiaris; conditions: in vivo
[7] = AUC (0 to infinity) in Sprague-Dawley rat at 5 mg/kg, po by LC-MS/MS analysis; type: ADME, organism-based; set-up: dose 5 mg/kg, time infinity, route oral; conditions: in vivo
[8] = biological target: Cytochrome P450 2D6 (Homo sapiens, UniProt P10635); test: Inhibition of CYP2D6 (unknown origin) preincubated for 10 mins followed by addition of AMMC as substrate measured after 30 mins in presence of NADP by fluorescence analysis; type: ADME
[9] = biological target: T1, Cytochrome P450 3A4 (Homo sapiens, UniProt P08684); test: Inhibition of CYP3A4 (unknown origin) preincubated for 10 mins followed by addition of DBF as substrate measured after 10 mins in presence of NADP by fluorescence analysis; type: ADME
[10] = Cmax in athymic CD-1 nude mouse at 10 mg/kg, po by LC-MS/MS analysis; type: ADME, organism-based; set-up: dose 10 mg/kg, route oral; conditions: in vivo
[11] = Bioavailability in Sprague-Dawley rat at 5 mg/kg by LC-MS/MS analysis; type: ADME, organism-based; conditions: in vivo
[12] = AUC (0 to infinity) in beagle dog at 5 mg/kg, po by LC-MS/MS analysis; type: ADME, organism-based, Canis lupus familiaris; set-up: dose 5 mg/kg, route oral, time infinity; conditions: in vivo
[13] = Clearance in Sprague-Dawley rat at 1 mg/kg, iv or 5 mg/kg, po by LC-MS/MS analysis; type: ADME, organism-based; conditions: in vivo
[14] = test system: OVCAR-3; test: Growth inhibition of human OVCAR3 cells measured after 5 days by sulforhodamine B assay; type: functional; conditions: OVCAR-3, 120 h
[15] = test system: HT-29; test: Antitumor activity against human HT-29 cells xenografted in athymic nude mouse assessed as tumor growth inhibition at 6.5 mg/kg, po qd measured on day 21; type: functional; conditions: HT-29, po, 504 h, read-out: TGI
[16] = biological target: Cytochrome P450 2C9 (Homo sapiens, UniProt P11712); test: Inhibition of CYP2C9 (unknown origin) preincubated for 10 mins followed by addition of MFC as substrate measured after 45 mins in presence of NADP by fluorescence analysis; type: ADME
[17] = test system: HCT-116; test: Antitumor activity against human HCT116 cells xenografted in athymic nude mouse assessed as tumor growth inhibition at 6.5 mg/kg, po qd measured on day 21; type: functional; conditions: HCT-116, po, 504 h, read-out: TGI
[18] = biological target: T1, Cytochrome P450 3A4; test: Inhibition of CYP3A4 (unknown origin) preincubated for 10 mins followed by addition of BFC as substrate measured after 10 mins in presence of NADP by fluorescence analysis; type: ADME
[19] = Clearance in beagle dog at 1 mg/kg, iv or 5 mg/kg, po by LC-MS/MS analysis; type: ADME, organism-based, Canis lupus familiaris; conditions: in vivo
[20] = test system: HCT-116; test: Growth inhibition of human HCT116 cells measured after 5 days by sulforhodamine B assay; type: functional; conditions: HCT-116, 120 h
[21] = test system: HCT-116; test: Antitumor activity against human HCT116 cells xenografted in athymic nude mouse assessed as tumor growth inhibition measured on day 21 relative to vehicle-treated control; type: functional
[22] = Toxicity in po dosed athymic nude mouse xenografted with human HCT116 cells assessed as induction of overt adverse signs measured on day 21; type: organism-based; conditions: in vivo
[23] = Toxicity in po dosed athymic nude mouse; type: organism-based; conditions: in vivo
[24] = Toxicity in po dosed athymic nude mouse xenografted with human HCT116 cells assessed as weight loss measured on day 21; type: organism-based; conditions: in vivo
[25] = Solubility of the compound at pH 7.4; type: physicochemical; conditions: buffer
[26] = biological target: T2, Cytochrome P450 1A2 (Homo sapiens, UniProt P05177); test: Inhibition of CYP1A2 (unknown origin) preincubated for 10 mins followed by addition of CEC as substrate measured after 15 mins in presence of NADP by fluorescence analysis; type: ADME
T2 sequence (P05177 whole entry): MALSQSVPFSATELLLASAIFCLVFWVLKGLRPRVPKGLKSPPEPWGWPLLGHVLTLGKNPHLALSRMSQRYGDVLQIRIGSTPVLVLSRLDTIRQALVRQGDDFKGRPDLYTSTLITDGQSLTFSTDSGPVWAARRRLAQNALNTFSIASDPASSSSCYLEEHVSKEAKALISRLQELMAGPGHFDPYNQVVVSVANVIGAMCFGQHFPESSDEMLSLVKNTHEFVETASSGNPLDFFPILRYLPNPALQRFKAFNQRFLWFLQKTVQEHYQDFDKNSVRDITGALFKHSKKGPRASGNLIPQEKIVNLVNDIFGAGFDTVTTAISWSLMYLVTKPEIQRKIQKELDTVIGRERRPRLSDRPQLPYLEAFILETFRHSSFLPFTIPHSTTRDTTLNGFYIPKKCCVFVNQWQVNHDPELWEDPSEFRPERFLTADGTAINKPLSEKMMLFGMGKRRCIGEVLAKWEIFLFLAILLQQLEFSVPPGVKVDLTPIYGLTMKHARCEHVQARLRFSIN

[27] = biological target: Cytochrome P450 2C19 (Homo sapiens, UniProt P33261); test: Inhibition of CYP2C19 (unknown origin) preincubated for 10 mins followed by addition of MFC as substrate measured after 30 mins in presence of NADP by fluorescence analysis; type: ADME
[28] = test system: HT-29; test: Antitumor activity against human HT-29 cells xenografted in athymic nude mouse assessed as tumor growth inhibition at 15 mg/kg, po qd measured on day 21; type: functional; conditions: HT-29, po, 504 h, read-out: TGI
[29] = test system: HCT-116; test: Antitumor activity against human HCT116 cells xenografted in athymic nude mouse assessed as tumor growth inhibition at 15 mg/kg, po qd measured on day 21; type: functional; conditions: HCT-116, po, 504 h, read-out: TGI
[30] = biological target: T3, Dual specificity protein kinase TTK (Homo sapiens, UniProt P33981)
T3 sequence (P33981 whole entry): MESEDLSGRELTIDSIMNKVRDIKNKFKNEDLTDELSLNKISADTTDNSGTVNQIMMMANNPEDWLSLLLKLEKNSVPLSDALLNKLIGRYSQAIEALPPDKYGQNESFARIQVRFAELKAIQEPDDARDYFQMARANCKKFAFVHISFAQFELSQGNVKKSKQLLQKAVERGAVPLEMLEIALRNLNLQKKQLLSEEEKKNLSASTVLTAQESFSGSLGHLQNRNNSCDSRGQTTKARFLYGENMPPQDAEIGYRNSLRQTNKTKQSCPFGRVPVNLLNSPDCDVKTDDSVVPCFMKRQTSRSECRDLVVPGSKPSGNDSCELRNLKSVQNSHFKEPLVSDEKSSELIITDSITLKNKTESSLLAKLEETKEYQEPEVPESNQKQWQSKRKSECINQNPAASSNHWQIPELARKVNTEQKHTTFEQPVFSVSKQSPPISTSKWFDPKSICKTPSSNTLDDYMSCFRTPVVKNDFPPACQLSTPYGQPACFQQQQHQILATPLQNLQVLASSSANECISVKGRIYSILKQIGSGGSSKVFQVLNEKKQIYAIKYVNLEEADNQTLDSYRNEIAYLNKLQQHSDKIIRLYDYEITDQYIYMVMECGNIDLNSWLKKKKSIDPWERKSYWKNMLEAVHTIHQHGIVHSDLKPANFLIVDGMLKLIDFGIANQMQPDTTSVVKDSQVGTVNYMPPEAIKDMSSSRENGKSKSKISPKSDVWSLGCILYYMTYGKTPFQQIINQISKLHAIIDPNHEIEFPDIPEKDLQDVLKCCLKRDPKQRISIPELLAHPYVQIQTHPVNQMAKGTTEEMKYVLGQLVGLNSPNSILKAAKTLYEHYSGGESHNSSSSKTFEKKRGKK

[31] = Drug uptake in po dosed mouse plasma; type: ADME, organism-based; conditions: in vivo

T1 sequence (P08684 whole entry): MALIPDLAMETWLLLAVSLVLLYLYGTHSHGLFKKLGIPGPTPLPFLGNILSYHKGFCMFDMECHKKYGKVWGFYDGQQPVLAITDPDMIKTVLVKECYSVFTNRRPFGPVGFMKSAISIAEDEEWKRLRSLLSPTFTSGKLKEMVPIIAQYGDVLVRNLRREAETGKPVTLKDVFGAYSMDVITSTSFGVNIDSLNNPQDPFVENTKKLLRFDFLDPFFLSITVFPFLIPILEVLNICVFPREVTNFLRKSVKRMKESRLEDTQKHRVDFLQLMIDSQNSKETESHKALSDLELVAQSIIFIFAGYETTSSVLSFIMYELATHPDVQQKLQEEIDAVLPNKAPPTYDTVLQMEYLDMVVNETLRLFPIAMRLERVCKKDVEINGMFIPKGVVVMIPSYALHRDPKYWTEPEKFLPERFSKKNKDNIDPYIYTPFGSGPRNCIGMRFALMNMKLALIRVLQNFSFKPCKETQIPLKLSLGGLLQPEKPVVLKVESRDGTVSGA
Sequence of Cytochrome P450 2D6 (P10635 whole entry): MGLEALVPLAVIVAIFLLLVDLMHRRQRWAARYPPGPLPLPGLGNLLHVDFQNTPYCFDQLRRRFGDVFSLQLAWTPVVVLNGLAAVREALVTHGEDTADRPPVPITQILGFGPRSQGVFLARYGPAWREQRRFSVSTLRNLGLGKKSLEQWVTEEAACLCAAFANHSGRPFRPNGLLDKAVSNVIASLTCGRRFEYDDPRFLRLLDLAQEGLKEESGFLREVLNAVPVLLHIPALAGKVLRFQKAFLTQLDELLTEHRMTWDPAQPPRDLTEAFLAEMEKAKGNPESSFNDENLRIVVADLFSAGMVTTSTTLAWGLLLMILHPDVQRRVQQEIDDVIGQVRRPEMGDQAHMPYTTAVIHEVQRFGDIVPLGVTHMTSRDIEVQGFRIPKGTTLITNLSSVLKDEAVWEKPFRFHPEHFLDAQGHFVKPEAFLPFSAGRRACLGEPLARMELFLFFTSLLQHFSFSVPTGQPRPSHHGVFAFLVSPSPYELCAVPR
Sequence of Cytochrome P450 2C9 (P11712 whole entry): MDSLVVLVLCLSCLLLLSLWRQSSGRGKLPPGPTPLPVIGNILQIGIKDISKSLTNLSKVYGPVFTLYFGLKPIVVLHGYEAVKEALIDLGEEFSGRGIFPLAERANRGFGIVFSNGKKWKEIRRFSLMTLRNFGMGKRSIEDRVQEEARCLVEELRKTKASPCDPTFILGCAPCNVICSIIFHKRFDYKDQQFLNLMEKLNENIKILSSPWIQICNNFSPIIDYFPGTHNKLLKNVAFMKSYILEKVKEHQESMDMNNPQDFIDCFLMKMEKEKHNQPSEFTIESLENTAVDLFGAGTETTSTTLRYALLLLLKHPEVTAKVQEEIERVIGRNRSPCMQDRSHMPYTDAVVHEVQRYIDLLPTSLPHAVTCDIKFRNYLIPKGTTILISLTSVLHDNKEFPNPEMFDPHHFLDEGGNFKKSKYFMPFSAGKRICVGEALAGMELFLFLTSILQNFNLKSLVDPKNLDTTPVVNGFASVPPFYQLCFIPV
Sequence of Cytochrome P450 2C19 (P33261 whole entry): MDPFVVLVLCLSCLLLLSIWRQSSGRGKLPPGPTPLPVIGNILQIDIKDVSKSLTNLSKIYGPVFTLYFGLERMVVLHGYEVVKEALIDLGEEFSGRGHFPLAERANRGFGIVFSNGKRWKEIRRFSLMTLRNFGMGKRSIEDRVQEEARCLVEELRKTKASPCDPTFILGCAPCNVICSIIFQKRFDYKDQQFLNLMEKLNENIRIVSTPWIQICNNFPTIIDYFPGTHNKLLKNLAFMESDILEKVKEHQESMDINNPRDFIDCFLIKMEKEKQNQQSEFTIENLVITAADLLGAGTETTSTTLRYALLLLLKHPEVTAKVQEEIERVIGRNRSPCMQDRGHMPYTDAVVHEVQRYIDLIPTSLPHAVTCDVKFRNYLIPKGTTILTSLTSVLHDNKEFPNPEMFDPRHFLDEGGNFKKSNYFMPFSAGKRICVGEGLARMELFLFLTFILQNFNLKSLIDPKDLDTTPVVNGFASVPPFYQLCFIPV

Row | Structure (SMILES) | AUC [1] [ng·h/mL] | solubility [2] [µg/mL] | GI50 [3] [nM] | pKa [4] | bioavailability [6] [%] | AUC(0-inf) [7] [ng·h/mL] | Cmax [10] [ng/mL] | bioavailability [11] [%] | AUC(0-inf) [12] [ng·h/mL] | clearance [13] [mL/min/kg] | GI50 [14] [nM] | inhibition in vivo at 6.5 mg/kg [15] [%] | inhibition in vivo at 6.5 mg/kg [17] [%] | IC50 [18] [nM] | clearance [19] [mL/min/kg] | GI50 [20] [nM] | MTD [23] [mg/kg] | solubility [25] [µg/mL] | inhibition in vivo at 15 mg/kg [28] [%] | IC50 [30] [nM] | also measured
1 | Cc1cc(-c2cnn3c(NC[C@H]4C[C@@](C)(O)C4)cc(Oc4cccnc4)nc23)ccc1C(=O)NC1CC1 [LUVIXASERTIB] | 7500 | 560 (≈ 1120 µM) | 2 | 3.7 | 114 | 3400 | 2500 | 53 | 25000 | 14 | 4 | 60 | 68 | 510 | 4.9 | 2 | 6.5 | 3.3 (≈ 6.62 µM) |  |  | inhibition in vivo at 5.5 mg/kg [5]: 68%; IC50 [8]: Not Active; IC50 [9]: 14 µM; IC50 [16]: 13 µM; TGI [21]: Dose-dependent effect; Activity [22]: Non-Toxic; Activity [24]: < 10%; IC50 [26]: Not Active; IC50 [27]: 8 µM
2 | Cc1cc(-c2cnn3c(NCC4CC4)cc(NC4CCCC[C@H]4O)nc23)ccc1C(=O)NC1CC1 (single isomer, unassigned) | 3100 | 170 (≈ 358 µM) | 20 | 3.4 | 95 | 3700 | 1700 | 94 | 14000 | 22 | 15 |  |  | 2000 | 7.9 | 9 | 15 | 5.3 (≈ 11.2 µM) | 53 | 2.2 | inhibition in vivo at 15 mg/kg [29]: 72%
3 | Cc1cc(-c2cnn3c(NCCN4CCOCC4)cc(Oc4cccc(F)c4)nc23)ccc1C(=O)NC1CC1 | 3600 | 11000 (≈ 20700 µM) | 20 | 6.7 | 77 | 1900 | 1200 | 77 | 2200 | 34 | 260 | 41 | 72 | 780 | 29 | 1 | 6.5 | 1.5 (≈ 2.83 µM) |  | 2.2 | Drug uptake [31]: Dose-dependent effect
4 | Cc1cc(-c2cnn3c(NCC4CCOCC4)cc(N[C@@H](C4CC4)C(C)(C)O)nc23)ccc1C(=O)NC1CC1 | 20000 | 470 (≈ 882 µM) | 60 | 3.5 | 98 | 490 | 5500 | 38 | 6900 | 66 | 80 |  |  | 3000 | 13 | 20 | 15 | 10 (≈ 18.8 µM) | 38 | 7 | inhibition in vivo at 15 mg/kg [29]: 70%
